US7064120B2, “Tricyclic pyridyl carboxamides and derivatives thereof tocolytic oxytocin receptor antagonists” (Wyeth, priority 2001, dated 2006)

Molecular target: T1, human vasopressin V2 receptor subtype (Homo sapiens, UniProt P30518)
T1 construct: host or cells: CHO cells, stably transfected (pZeoSV vector)
Test: Vasopressin binding in CHO cell membranes expressing human vasopressin V2 subtype receptors ([3H]arginine vasopressin radioligand binding)
Conditions: 100 nM
How it was run: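 Values are IC50 in nM or percent inhibition at a stated concentration, from scintillation counts after filtration. Binding ran 60 min at room temperature: [3H]arginine vasopressin, human V2-transfected CHO membranes (25 to 50 μg protein/well), pH 7.4 Tris-HCl buffer containing MgCl2, BSA, protease inhibitors.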

T1 sequence (P30518 whole entry): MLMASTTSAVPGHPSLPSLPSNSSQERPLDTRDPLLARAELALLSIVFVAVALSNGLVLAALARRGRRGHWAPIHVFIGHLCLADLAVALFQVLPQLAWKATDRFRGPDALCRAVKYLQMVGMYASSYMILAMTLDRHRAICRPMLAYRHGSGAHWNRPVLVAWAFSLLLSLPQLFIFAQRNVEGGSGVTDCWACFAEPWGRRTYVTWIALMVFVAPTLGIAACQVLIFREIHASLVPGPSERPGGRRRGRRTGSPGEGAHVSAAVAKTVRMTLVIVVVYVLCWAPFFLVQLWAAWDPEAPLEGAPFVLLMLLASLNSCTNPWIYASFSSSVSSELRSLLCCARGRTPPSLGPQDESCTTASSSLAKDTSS

Compound	inhibition at 0.1 µM
COc1cccc(-c2ccc(C(=O)N3Cc4ccc(C(=O)N(C)CCc5ccncc5)n4Cc4ccccc43)cc2C)c1 [Example 128, 10-[(3′-Methoxy-2-methyl-[1,1′-biphenyl]-4-yl)carbonyl]-N-methyl-N-[2-(4-pyridinyl)ethyl]-10,11-dihydro-5H-pyrrolo[2,1-c][1,4]benzodiazepine-3-carboxamide]	10%
COc1ccccc1-c1ccc(C(=O)N2Cc3ccc(C(=O)N(C)CCc4ccncc4)n3Cc3ccccc32)cc1 [Example 129, 10-[(2′-Methoxy-[1,1′-biphenyl]-4-yl)carbonyl]-N-methyl-N-[2-(4-pyridinyl)ethyl]-10,11-dihydro-5H-pyrrolo[2,1-c][1,4]benzodiazepine-3-carboxamide]	28%
Cc1ccccc1-c1ccc(C(=O)N2Cc3ccc(C(=O)N(C)CCc4ccncc4)n3Cc3ccccc32)cc1 [Example 130, N-Methyl-10-[(2′-methyl-[1,1′-biphenyl]-4-yl)carbonyl]-N-[2-(4-pyridinyl)ethyl]-10,11-dihydro-5H-pyrrolo[2,1-c][1,4]benzodiazepine-3-carboxamide]	12%
COc1cc(C(=O)N2Cc3ccc(C(=O)N(C)CCc4ccncc4)n3Cc3ccccc32)ccc1-c1ccccc1C [Example 131, 10-[(2-Methoxy-2′-methyl-[1,1′-biphenyl]-4-yl)carbonyl]-N-methyl-N-[2-(4-pyridinyl)ethyl]-10,11-dihydro-5H-pyrrolo[2,1-c][1,4]benzodiazepine-3-carboxamide]	-5%
COc1cc(-c2ccccc2C)c(Cl)cc1C(=O)N1Cc2ccc(C(=O)N(C)CCc3ccncc3)n2Cc2ccccc21 [Example 132, 10-[(6-Chloro-3-methoxy-2′-methyl-[1,1′-biphenyl]-4-yl)carbonyl]-N-methyl-N-[2-(4-pyridinyl)ethyl]-10,11-dihydro-5H-pyrrolo[2,1-c][1,4]benzodiazepine-3-carboxamide]	25%
COc1cccc(-c2cc(OC)c(C(=O)N3Cc4ccc(C(=O)N(C)CCc5ccncc5)n4Cc4ccccc43)cc2Cl)c1 [Example 133, 10-[(6-Chloro-3,3′-dimethoxy-[1,1′-biphenyl]-4-yl)carbonyl]-N-methyl-N-[2-(4-pyridinyl)ethyl]-10,11-dihydro-5H-pyrrolo[2,1-c][1,4]benzodiazepine-3-carboxamide]	15%
COc1cc(C(=O)N2Cc3ccc(C(=O)N(C)CCc4ccncc4)n3Cc3ccccc32)ccc1-c1cccc2ccccc12 [Example 134, 10-[3-Methoxy-4-(naphthalen-1-yl)benzoyl]-N-methyl-N-[2-(4-pyridinyl)ethyl]-10,11-dihydro-5H-pyrrolo[2,1-c][1,4]benzodiazepine-3-carboxamide]	1%
COc1cccc(-c2ccc(C(=O)N3Cc4ccc(C(=O)N(C)CCc5ccncc5)n4Cc4ccccc43)cc2OC)c1 [Example 135, 10-[(2,3′-Dimethoxy-[1,1′-biphenyl]-4-yl)carbonyl]-N-methyl-N-[2-(4-pyridinyl)ethyl]-10,11-dihydro-5H-pyrrolo[2,1-c][1,4]benzodiazepine-3-carboxamide]	35%
CN(CCc1ccncc1)C(=O)c1ccc2n1Cc1ccccc1N(C(=O)c1ccc(-c3cccc4ccccc34)cc1Cl)C2 [Example 136, 10-[2-Chloro-4-(naphthalen-1-yl)benzoyl]-N-methyl-N-[2-(4-pyridinyl)ethyl]-10,11-dihydro-5H-pyrrolo[2,1-c][1,4]benzodiazepine-3-carboxamide]	19%
Cc1cc(C(=O)N2Cc3ccc(C(=O)N(C)CCc4ccncc4)n3Cc3ccccc32)ccc1-c1ccccc1C(F)(F)F [Example 137, N-Methyl-10-{[2-methyl-2′-trifluoromethyl-[1,1′-biphenyl]-4-yl]carbonyl}-N-[2-(4-pyridinyl)ethyl]-10,11-dihydro-5H-pyrrolo[2,1-c][1,4]benzodiazepine-3-carboxamide]	11%
COc1ccccc1-c1ccc(C(=O)N2Cc3ccc(C(=O)N4CCCCC4c4cccnc4)n3Cc3ccccc32)cc1C (stereo not shown) [Example 138, {10-[(2′-Methoxy-2-methyl-[1,1′-biphenyl]-4-yl)carbonyl]-10,11-dihydro-5H-pyrrolo[2,1-c][1,4]benzodiazepin-3-yl}[2-(3-pyridinyl)-1-piperidinyl]methanone]	42%
COc1ccccc1-c1ccc(C(=O)N2Cc3ccc(C(=O)N4CCCCC4c4cccnc4)n3Cc3ccccc32)cc1 (stereo not shown) [Example 139, {10-[(2′-Methoxy-[1,1′-biphenyl]-4-yl)carbonyl]-10,11-dihydro-5H-pyrrolo[2,1-c][1,4]benzodiazepin-3-yl}[2-(3-pyridinyl)-1-piperidinyl]methanone]	34%
COc1cc(-c2ccccc2C)c(Cl)cc1C(=O)N1Cc2ccc(C(=O)N3CCCCC3c3cccnc3)n2Cc2ccccc21 (stereo not shown) [Example 140, {10-[(6-Chloro-3-methoxy-2′-methyl-[1,1′-biphenyl]-4-yl)carbonyl]-10,11-dihydro-5H-pyrrolo[2,1-c][1,4]benzodiazepin-3-yl}[2-(3-pyridinyl)-1-piperidinyl]methanone]	29%
COc1ccccc1-c1ccc(C(=O)N2Cc3ccc(C(=O)N4CCCCC4c4cccnc4)n3Cc3ccccc32)cc1OC (stereo not shown) [Example 141, {10-[(2,2′-Dimethoxy-[1,1′-biphenyl]-4-yl)carbonyl]-10,11-dihydro-5H-pyrrolo[2,1-c][1,4]benzodiazepin-3-yl}[2-(3-pyridinyl)-1-piperidinyl]methanone]	40%
Cc1cc(C(=O)N2Cc3ccc(C(=O)N4CCCCC4c4cccnc4)n3Cc3ccccc32)ccc1-c1ccccc1C(F)(F)F (stereo not shown) [Example 142, (10-{[2-Methyl-2′-trifluoromethyl-[1,1′-biphenyl]-4-yl]carbonyl}-10,11-dihydro-5H-pyrrolo[2,1-c][1,4]benzodiazepin-3-yl)[2-(3-pyridinyl)-1-piperidinyl]methanone]	16%
COc1cc(C(=O)N2Cc3ccc(C(=O)N(C)CCc4ccccn4)n3Cc3ccccc32)ccc1-n1c(C)ccc1C [Example 144, 10-[4-(2,5-Dimethyl-1H-pyrrol-1-yl)-3-methoxybenzoyl]-N-methyl-N-[2-(pyridin-2-yl)ethyl]-10,11-dihydro-5H-pyrrolo[2,1-c][1,4]benzodiazepine-3-carboxamide]	2%
COc1cc(C(=O)N2Cc3ccc(C(=O)N4CCN(c5ccccn5)CC4)n3Cc3ccccc32)ccc1-n1c(C)ccc1C [Example 145, {10-[4-(2,5-Dimethyl-1H-pyrrol-1-yl)-3-methoxybenzoyl]-10,11-dihydro-5H-pyrrolo[2,1-c][1,4]benzodiazepin-3-yl}[4-(pyridin-2-yl)-1-piperazinyl]methanone]	2%
COc1cc(C(=O)N2Cc3ccc(C(=O)N4CCN(c5ccncc5)CC4)n3Cc3ccccc32)ccc1-n1c(C)ccc1C [Example 146, {10-[4-(2,5-Dimethyl-1H-pyrrol-1-yl)-3-methoxybenzoyl]-10,11-dihydro-5H-pyrrolo[2,1-c][1,4]benzodiazepin-3-yl}[4-(pyridin-4-yl)-1-piperazinyl]methanone]	15%
COc1cc(C(=O)N2Cc3ccc(C(=O)N(C)CCc4ccncc4)n3Cc3ccccc32)ccc1-n1c(C)ccc1C [Example 147, 10-[4-(2,5-Dimethyl-1H-pyrrol-1-yl)-3-methoxybenzoyl]-N-methyl-N-[2-(pyridin-4-yl)ethyl]-10,11-dihydro-5H-pyrrolo[2,1-c][1,4]benzodiazepine-3-carboxamide]	21%
